Source: patent US11192877B2, “3-(5-hydroxy-1-oxoisoindolin-2-yl)piperidine-2,6-dione derivatives and uses thereof” (Novartis AG, priority 2018, dated 2021)
Structures can show the parent of a compound that is named as a salt. Where two headings read alike, the source gives them in different places.

Target: IKZF2 (Helios) (Homo sapiens, UniProt Q96SW2+Q9UKS7)
Assay: Prolabel quantification of IKZF2 protein levels in 293GT cells
Format: cell-based
Settings: for IKZF2 % protein reduction at 10 µM: 24 h, read-out: IKZF2 % protein reduction at 10 μM, 24 h
[1] = Pro-label assay, 293GT cells, 10 μM

Chain of IKZF2 (Helios) (Q9UKS7 whole entry): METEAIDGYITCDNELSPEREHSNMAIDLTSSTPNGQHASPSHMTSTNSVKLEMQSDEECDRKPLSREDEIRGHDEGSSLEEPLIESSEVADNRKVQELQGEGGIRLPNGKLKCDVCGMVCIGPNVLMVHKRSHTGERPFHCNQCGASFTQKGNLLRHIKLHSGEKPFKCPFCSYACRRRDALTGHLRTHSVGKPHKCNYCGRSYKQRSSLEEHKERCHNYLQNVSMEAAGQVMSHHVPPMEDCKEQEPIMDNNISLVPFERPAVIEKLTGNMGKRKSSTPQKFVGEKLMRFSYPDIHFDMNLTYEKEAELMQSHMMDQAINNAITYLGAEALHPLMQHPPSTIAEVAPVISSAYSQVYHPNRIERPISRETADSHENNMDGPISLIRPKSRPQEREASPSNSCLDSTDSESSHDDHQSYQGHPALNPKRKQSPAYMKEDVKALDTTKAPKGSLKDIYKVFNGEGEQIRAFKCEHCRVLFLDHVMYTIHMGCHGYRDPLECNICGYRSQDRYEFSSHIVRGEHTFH
Chain of IKZF2 (Helios) (Q96SW2 whole entry): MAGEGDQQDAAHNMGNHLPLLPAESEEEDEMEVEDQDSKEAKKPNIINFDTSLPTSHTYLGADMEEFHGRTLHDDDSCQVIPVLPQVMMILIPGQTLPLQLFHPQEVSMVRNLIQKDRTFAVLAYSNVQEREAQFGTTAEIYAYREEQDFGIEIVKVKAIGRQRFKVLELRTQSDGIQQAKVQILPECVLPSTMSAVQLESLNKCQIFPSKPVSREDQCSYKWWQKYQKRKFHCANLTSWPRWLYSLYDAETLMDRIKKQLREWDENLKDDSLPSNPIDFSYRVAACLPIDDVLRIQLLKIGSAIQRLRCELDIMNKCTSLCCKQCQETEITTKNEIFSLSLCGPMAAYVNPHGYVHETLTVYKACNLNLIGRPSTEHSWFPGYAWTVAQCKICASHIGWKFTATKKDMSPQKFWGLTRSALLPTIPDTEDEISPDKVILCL
Chain of IKZF2 (Helios) (Q16531 whole entry partner): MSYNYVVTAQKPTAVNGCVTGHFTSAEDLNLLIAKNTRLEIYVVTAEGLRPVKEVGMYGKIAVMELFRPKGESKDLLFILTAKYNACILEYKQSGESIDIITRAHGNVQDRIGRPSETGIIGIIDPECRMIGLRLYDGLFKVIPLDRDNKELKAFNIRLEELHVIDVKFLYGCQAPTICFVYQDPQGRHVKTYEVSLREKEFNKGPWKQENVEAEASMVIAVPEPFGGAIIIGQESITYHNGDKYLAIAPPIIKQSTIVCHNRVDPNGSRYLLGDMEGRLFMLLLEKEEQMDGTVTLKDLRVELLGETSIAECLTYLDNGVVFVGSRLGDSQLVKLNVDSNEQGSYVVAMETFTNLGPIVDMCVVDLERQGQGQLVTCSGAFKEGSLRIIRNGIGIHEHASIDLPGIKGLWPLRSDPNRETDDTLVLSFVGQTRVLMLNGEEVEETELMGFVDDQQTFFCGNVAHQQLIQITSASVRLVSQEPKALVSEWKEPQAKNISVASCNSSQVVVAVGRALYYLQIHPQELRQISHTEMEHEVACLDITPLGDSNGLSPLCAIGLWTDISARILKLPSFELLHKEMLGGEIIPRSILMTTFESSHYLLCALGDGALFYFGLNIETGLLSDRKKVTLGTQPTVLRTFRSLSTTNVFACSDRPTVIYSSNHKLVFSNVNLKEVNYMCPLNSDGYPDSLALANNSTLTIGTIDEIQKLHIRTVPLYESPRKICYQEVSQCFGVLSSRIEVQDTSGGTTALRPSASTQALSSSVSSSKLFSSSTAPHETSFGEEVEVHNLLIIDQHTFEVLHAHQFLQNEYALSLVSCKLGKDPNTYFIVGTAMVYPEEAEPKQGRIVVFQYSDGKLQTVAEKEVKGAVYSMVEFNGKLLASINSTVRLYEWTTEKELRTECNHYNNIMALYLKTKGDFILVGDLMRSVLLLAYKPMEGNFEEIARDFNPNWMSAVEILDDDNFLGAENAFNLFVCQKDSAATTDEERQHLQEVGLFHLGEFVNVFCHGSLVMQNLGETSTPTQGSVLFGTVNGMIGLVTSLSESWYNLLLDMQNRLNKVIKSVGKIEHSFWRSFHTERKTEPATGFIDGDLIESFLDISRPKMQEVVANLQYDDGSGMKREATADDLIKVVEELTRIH

Row | Compound | IKZF2 % protein reduction at 10 µM [1] [%] | also measured
1 | 3-(1-oxo-5-(((1S,2S)-2-phenoxycyclohexyl)oxy)isoindolin-2-yl)piperidine-2,6-dione and 3-(1-oxo-5-(((1R,2R)-2-phenoxycyclohexyl)oxy)isoindolin-2-yl)piperidine-2,6-dione [I-19] |  | IKZF2 % protein reduction at 10 μM, 24 h [1]: 10%
2 | CCN(CC)C1CC(C)(C)CC1Oc1ccc2c(c1)CN(C1CCC(=O)NC1=O)C2=O (mixture of isomers) [I-172, Mixture of 3-(5-(((1S,2S)-2-(diethylamino)-4,4-dimethylcyclopentyl)oxy)-1-oxoisoindolin-2-yl)piperidine-2,6-dione and 3-(5-(((1R,2R)-2-(diethylamino)-4,4-dimethylcyclopentyl)oxy)-1-oxoisoindolin-2-yl)piperidine-2,6-dione] | 58 | 
3 | CN1CC[C@H]2CC[C@H](Oc3ccc4c(c3)CN(C3CCC(=O)NC3=O)C4=O)[C@H]21 (relative stereo) [I-3, 3-(5-(((3aR*,6S*,6aS*)-1-methyloctahydrocyclopenta[b]pyrrol-6-yl)oxy)-1-oxoisoindolin-2-yl)piperidine-2,6-dione] | 40 | 
4 | O=C1CCC(N2Cc3cc(O[C@@H]4CCCC[C@@H]4O)ccc3C2=O)C(=O)N1 (relative stereo) [I-37, 3-(5-(((1R*, 2S*)-2-hydroxycyclohexyl)oxy)-1-oxoisoindolin-2-yl)piperidine-2,6-dione] | 0 | 
5 | O=C1CCC(N2Cc3cc(O[C@H]4CC[C@@H]4NCc4ccccc4)ccc3C2=O)C(=O)N1 (single isomer, unassigned) [I-44] | 42 | 
6 | CC1(C#N)CC(CN[C@H]2CCCC[C@@H]2Oc2ccc3c(c2)CN(C2CCC(=O)NC2=O)C3=O)C1 (single isomer, unassigned) [I-94] | 84 | 
7 | COC1CC(CNC2CCCCC2Oc2ccc3c(c2)CN(C2CCC(=O)NC2=O)C3=O)C1 (single isomer, unassigned) [I-99] | 86 | 
8 | COC1CC(CNC2CCCCC2Oc2ccc3c(c2)CN(C2CCC(=O)NC2=O)C3=O)C1 (single isomer, unassigned) [I-100] |  | IKZF2 % protein reduction at 10 μM, 24 h [1]: 86%
9 | CO[C@@H]1CCC[C@H]1N[C@H]1CCCC[C@@H]1Oc1ccc2c(c1)CN(C1CCC(=O)NC1=O)C2=O (single isomer, unassigned) [I-118] | 67 | 
10 | CO[C@H]1CCC[C@@H]1N[C@H]1CCCC[C@@H]1Oc1ccc2c(c1)CN(C1CCC(=O)NC1=O)C2=O (single isomer, unassigned) [I-119] | 59 | 
11 | O=C1CCC(N2Cc3cc(OC4CCCCC4N4CCC(F)(F)C4)ccc3C2=O)C(=O)N1 (single isomer, unassigned) [I-134, 3-(5-((2-(3,3-difluoropyrrolidin-1-yl)cyclohexyl)oxy)-1-oxoisoindolin-2-yl)piperidine-2,6-dione] | 56 | 
12 | CCN(CC1CC(C)(C#N)C1)C1CCCC1Oc1ccc2c(c1)CN(C1CCC(=O)NC1=O)C2=O (single isomer, unassigned) [I-164] | 71 | 
13 | CCN(CC1CC(C)(C#N)C1)C1CCCC1Oc1ccc2c(c1)CN(C1CCC(=O)NC1=O)C2=O (single isomer, unassigned) [I-165] |  | IKZF2 % protein reduction at 10 μM, 24 h [1]: 72%
14 | CC1(C)CCCN([C@H]2CCC[C@@H]2Oc2ccc3c(c2)CN(C2CCC(=O)NC2=O)C3=O)C1 (single isomer, unassigned) [I-168] | 83 | 
15 | CC1(C)CCCN([C@@H]2CCC[C@H]2Oc2ccc3c(c2)CN(C2CCC(=O)NC2=O)C3=O)C1 (single isomer, unassigned) [I-169] | 2 | 
16 | O=C1CCC(N2Cc3cc(OC4CCCC4N4CCC5(CCOC5)CC4)ccc3C2=O)C(=O)N1 (single isomer, unassigned) [I-176, 3-(5-((2-(2-oxa-8-azaspiro[4.5]decan-8-yl)cyclopentyl)oxy)-1-oxoisoindolin-2-yl)piperidine-2,6-dione] | 89 | 
17 | O=C1CCC(N2Cc3cc(OC4CCCC4N4CCCC5(CCC5)C4)ccc3C2=O)C(=O)N1 (single isomer, unassigned) [I-179, 3-(5-((2-(6-azaspiro[3.5]nonan-6-yl)cyclopentyl)oxy)-1-oxoisoindolin-2-yl)piperidine-2,6-dione] | 85 | 
18 | O=C1CCC(N2Cc3cc(OC4CCCC4N4CCC5(CCOCC5)C4)ccc3C2=O)C(=O)N1 (single isomer, unassigned) [I-183, 3-(5-((2-(8-oxa-2-azaspiro[4.5]decan-2-yl)cyclopentyl)oxy)-1-oxoisoindolin-2-yl)piperidine-2,6-dione] | 84 | 
19 | CO[C@@H]1CCN(C2CCCC2Oc2ccc3c(c2)CN(C2CCC(=O)NC2=O)C3=O)C1 (single isomer, unassigned) [I-192] | 77 | 

Row | Compound | IKZF2 % protein reduction at 10 µM [1] [%] | also measured
20 | CO[C@H]1CCN(C2CCCC2Oc2ccc3c(c2)CN(C2CCC(=O)NC2=O)C3=O)C1 (single isomer, unassigned) [I-193] | 79 | 
21 | O=C1CCC(N2Cc3cc(O[C@H]4CCC[C@@H]4N4CCSCC4)ccc3C2=O)C(=O)N1 (stereo in doubt) [I-184, 3-(1-oxo-5-(((1S,2S)-2-thiomorpholinocyclopentyl)oxy)isoindolin-2-yl)piperidine-2,6-dione] |  | IKZF2 % protein reduction at 10 µM: 38%
22 | O=C1CCC(N2Cc3cc(O[C@H]4CCC[C@@H]4N4CCCOCC4)ccc3C2=O)C(=O)N1 (stereo in doubt) [I-185, 3-(5-(((1S,2S)-2-(1,4-oxazepan-4-yl)cyclopentyl)oxy)-1-oxoisoindolin-2-yl)piperidine-2,6-dione] | 66 | 
23 | N[C@H]1CCC[C@@H]1Oc1ccc2c(c1)CN(C1CCC(=O)NC1=O)C2=O (some centres unmarked) [Cmpd I-12] | 65 | 
24 | CCN(CC(F)F)[C@H]1CCC[C@@H]1Oc1ccc2c(c1)CN(C1CCC(=O)NC1=O)C2=O (stereo partly drawn) [I-1, 3-(5-(((1S,2S)-2-((2,2-difluoroethyl)(ethyl)amino)cyclopentyl)oxy)-1-oxoisoindolin-2-yl)piperidine-2,6-dione] | 10 | 
25 | O=C1CCC(N2Cc3cc(O[C@H]4CCCC[C@H]4NCc4ccccc4)ccc3C2=O)C(=O)N1 (stereo partly drawn) [I-2, 3-(5-(((1S,2R)-2-(benzylamino)cyclohexyl)oxy)-1-oxoisoindolin-2-yl)piperidine-2,6-dione] | 10 | 
26 | CO[C@H]1CCCC[C@@H]1Oc1ccc2c(c1)CN(C1CCC(=O)NC1=O)C2=O (stereo partly drawn) [I-4, 3-(5-(((1S,2S)-2-methoxycyclohexyl)oxy)-1-oxoisoindolin-2-yl)piperidine-2,6-dione] | 25 | 
27 | O=C1CCC(N2Cc3cc(O[C@H]4CCC[C@@H]4N4CC(O)C4)ccc3C2=O)C(=O)N1 (stereo partly drawn) [I-5, 3-(5-(((1S,2S)-2-(3-hydroxyazetidin-1-yl)cyclopentyl)oxy)-1-oxoisoindolin-2-yl)piperidine-2,6-dione] | 60 | 
28 | O=C1CCC(N2Cc3cc(O[C@@H]4CCC[C@H]4O)ccc3C2=O)C(=O)N1 (stereo partly drawn) [I-6, 3-(5-(((1R,2R)-2-hydroxycyclopentyl)oxy)-1-oxoisoindolin-2-yl)piperidine-2,6-dione] | 5 | 
29 | CC(C)CN[C@H]1CCCC[C@@H]1Oc1ccc2c(c1)CN(C1CCC(=O)NC1=O)C2=O (stereo partly drawn) [I-7, 3-(5-(((1S,2S)-2-(isobutylamino)cyclohexyl)oxy)-1-oxoisoindolin-2-yl)piperidine-2,6-dione] | 85 | 
30 | O=C1CCC(N2Cc3cc(O[C@H]4CCC[C@@H]4N4CCC(F)(F)CC4)ccc3C2=O)C(=O)N1 (stereo partly drawn) [I-8, 3-(5-(((1S,2S)-2-(4,4-difluoropiperidin-1-yl)cyclopentyl)oxy)-1-oxoisoindolin-2-yl)piperidine-2,6-dione] | 50 | 
31 | O=C1CCC(N2Cc3cc(O[C@H]4CCC[C@@H]4OCc4ccccc4)ccc3C2=O)C(=O)N1 (stereo partly drawn) [I-9, 3-(5-(((1S,2S)-2-(benzyloxy)cyclopentyl)oxy)-1-oxoisoindolin-2-yl)piperidine-2,6-dione] | 0 | 
32 | CCN(CC)[C@@H]1CCC[C@@H]1Oc1ccc2c(c1)CN(C1CCC(=O)NC1=O)C2=O (stereo partly drawn) [I-10, 3-(5-(((1S,2R)-2-(diethylamino)cyclopentyl)oxy)-1-oxoisoindolin-2-yl)piperidine-2,6-dione] | 0 | 
33 | O=C1CCC(N2Cc3cc(O[C@H]4CCCC[C@@H]4NCC4(C(F)(F)F)CC4)ccc3C2=O)C(=O)N1 (stereo partly drawn) [I-11, 3-(1-oxo-5-(((1S,2S)-2-(((1-(trifluoromethyl)cyclopropyl)methyl)amino)cyclohexyl)oxy)isoindolin-2-yl)piperidine-2,6-dione] | 75 | 
34 | CCN(CC)[C@H]1CCC[C@@H]1Oc1ccc2c(c1)CN(C1CCC(=O)NC1=O)C2=O (stereo partly drawn) [I-13, 3-(5-(((1S,2S)-2-(diethylamino)cyclopentyl)oxy)-1-oxoisoindolin-2-yl)piperidine-2,6-dione] | 85 | 
35 | CCN(CC)[C@H]1CCCC[C@@H]1Oc1ccc2c(c1)CN(C1CCC(=O)NC1=O)C2=O (stereo partly drawn) [I-14, 3-(5-(((1S,2S)-2-(diethylamino)cyclohexyl)oxy)-1-oxoisoindolin-2-yl)piperidine-2,6-dione] | 60 | 
36 | N[C@H]1CCCC[C@@H]1Oc1ccc2c(c1)CN(C1CCC(=O)NC1=O)C2=O (stereo partly drawn) [I-15, 3-(5-(((1S,2S)-2-aminocyclohexyl)oxy)-1-oxoisoindolin-2-yl)piperidine-2,6-dione hydrochloride] |  | IKZF2 % protein reduction at 10 µM: 50%
37 | O=C1CCC(N2Cc3cc(O[C@H]4CCC[C@@H]4N4CC5CCC(C5)C4)ccc3C2=O)C(=O)N1 (stereo partly drawn) [I-16, 3-(5-(((1S,2S)-2-(3-azabicyclo[3.2.1]octan-3-yl)cyclopentyl)oxy)-1-oxoisoindolin-2-yl)piperidine-2,6-dione] | 85 | 
38 | O=C1CCC(N2Cc3cc(O[C@H]4CCC[C@@H]4N4CCC5(CC4)OCCO5)ccc3C2=O)C(=O)N1 (stereo partly drawn) [I-17, 3-(5-(((1S,2S)-2-(1,4-dioxa-8-azaspiro[4.5]decan-8-yl)cyclopentyl)oxy)-1-oxoisoindolin-2-yl)piperidine-2,6-dione] | 80 | 
